IC50 data for 14 compounds are collected here from patent publication US20230339882A1, “SHP2 INHIBITOR AND COMPOSITION AND APPLICATION THEREOF” (Betta Pharmaceuticals Co., Ltd., priority 2020, published 2023).

The target of one test is SHP2 (Homo sapiens (Human), UniProt Q06124). Kind of test: SHP2 allosteric inhibitory enzyme activity assay (DiFMUP fluorescence). In kind it is biochemical. The settings on record: read-out: SHP2 enzymatic activity IC50. The source says: Example A: SHP2 Allosteric Inhibitory Enzyme Activity Assay
SHP2 is allosterically activated by binding of a bis-tyrosyl-phosphorylated peptide to its Src homology 2 (SH2) domain. This later activation step results in the release of the autoinhibitory interface of SHP2, which in turn activates the SHP2 protein tyrosine phosphatase (PTP) and is available for substrate recognition and reaction catalysis. The catalytic activity of SHP2 was monitored using the surrogate DiFMUP in a rapid fluorescence assay format.
experiment procedure: • (1) Compound preparation: • The compounds of the present invention (10 mM stock solution) were diluted to appropriate times with 100% DMSO, and the final test concentrations of the compounds of the present invention were 10 µM, 3.3333 µM, 1.1111 µM, 0.3704 µM, 0.1235 µM, 0.0412 µM, 0.0137 µM, 0.0046 µM, 0.0015 µM, 0.00 µM; • (2) Prepare the enzyme reaction working solution: • Perform SHP2 enzymatic assays in 96-well black polystyrene plates (flat bottom, low flange, non-binding surface) (Perki Elmer, Cat#6005270) at room temperature using a final reaction volume of 50 µL and the following assay buffer conditions: 60 mM HEPES, 75 mM NaCl, 75 mM KCl, 0.05% BRIJ-35, 1 mM EDTA, 5 mM DTT. • (3) Enzyme-catalyzed reaction and data monitoring: • Add the compound of the present invention to the corresponding 96-well plate, and set the blank test well without compound and enzyme only with buffer. Thaw SHP2 Activating Peptide (IRS1_pY1172(dPEG8)pY1222) on ice, add 25 µM to each well, then add 0.2 ng of SHP2 protein sample to the corresponding well plate and incubate at room temperature for 1 hour. The surrogate substrate DiFMUP (Invitrogen, Cat #D6567) was added to the reaction and allowed to react for 1 hour at room temperature. Fluorescence signals were monitored using a microplate reader (Envision, Perki Elmer) using excitation and emission wavelengths of 340 nm and […], respectively. • (4) Data analysis: • Calculation Formula: • [formula]
Among them: Conversion_sample is the conversion rate reading of the sample; Conversion_min is the average value of blank control wells, representing the conversion rate readings of wells without enzymatic activity; Conversion_max is the mean ratio of positive control wells, representing the conversion rate readings of wells without compound inhibition. The log(inhibitor) vs. response-Variable slope of the analysis software GraphPad Prism was used to fit the dose-response curve, and the IC50 value of the compound for the enzymatic activity was calculated.

The next test has as its system leukemia cells MV-4-11. Kind of test: Cell proliferation assay, CELL TITER-GLO (CTG) luminescence, MV-4-11. In kind it is cell-based. The protocol: (§1) Example B: Cell Proliferation Assay
(§2) The effects of the compounds of the invention on the proliferation of leukemia cells MV-4-11 and lung cancer cells NCI-H358 were evaluated using in vitro cell assays. The detection method used in the experiment is the CELL TITER-GLO (CTG) luminescence method, which can detect the number of viable cells by quantifying ATP. Because ATP participates in a variety of enzymatic reactions in vivo, it is an indicator of the metabolism of living cells, and its content directly reflects the number and state of cells. During the experiment, CellTiter-Glo™ reagent was added to the cell culture medium to measure the luminescence value. The value is proportional to the amount of ATP, and ATP is positively related to the number of living cells, so the cell viability can be examined by detecting the ATP content.
(§3) experiment procedure: • (1) Cell plating: • Take a bottle of MV-4-11 cells in logarithmic growth phase, resuspend the cells by centrifugation and count them. After adjusting the cell density, they were seeded into a 96-well plate (Corning #3917). After culturing in a 5% CO2 incubator for 24 hrs, the compound of the present invention was added for treatment; • Take a bottle of NCI-H358 cells in logarithmic growth phase, digest and resuspend the cells, count them, adjust the cell density, and inoculate them into a 96-well transparent ultra-low adsorption cell culture plate (Corning #3474), inoculate 2000 cells per well. The plate was placed in an incubator at 37° C. and 5% CO2 for 24 hrs, and then the compound of the present invention was added for treatment; • (2) Cell compound treatment: • An appropriate amount of the compound of the present invention was prepared for cell treatment. The final concentration of the compound from high to low was 1000 nM, 333.3 nM, 111.1 nM, 37.04 nM, 12.35 nM, 4.115 nM, 1.372 nM, 0.4572 nM, 0.1524 nM, and 0 nM. The plate was placed in a 37° C., 5% CO2 incubator for 120 hrs. Only adding medium without cell wells was set as the blank group; the group with compound concentration of 0 nM was the zero-adjusting group. • (3) CTG detection: • After NCI-H358 cells were cultured for 96 hrs, 50 µL of CellTiter-Glo® Luminescent Cell Viability Assay solution was added to each well, shaken gently for 2 mins, and incubated at room temperature for 10 mins. The cell reaction system was transferred to a white-bottomed 96-well plate. Read the detection value of each well on a multi-function microplate reader. • After MV-4-11 cells were cultured for 120 hrs, 50 µL of CellTiter-Glo® Luminescent Cell Viability Assay solution was added to each well, gently shaken for 2 mins, and incubated at room temperature for 10 mins. Check the value. • (4) Data analysis: • Calculate the inhibition rate from the luminescence value readings, • [formula]
(§4) The log(inhibitor) vs. response-Variable slope of GraphPad Prism was fitted to dose-response curves and IC50s of compounds that inhibited cell proliferation were calculated.

Test [1] has as its system lung cancer cells NCI-H358. Nature of the test: Cell proliferation assay, CELL TITER-GLO (CTG) luminescence, NCI-H358. In kind it is cell-based. The following applies: cultured for 96 hrs. The protocol: as §1, §2, §3, §4
(In general: Cellular ATP, detected with luciferase, serves as a proxy for viable cell number.)

Setting [2] is: Homo sapiens, MV4-11, cultured for 120 hrs.
[3] abbreviates: Homo sapiens, NCI-H358, ultra-low adsorption plate.

Chain of SHP2 (Q06124 whole entry): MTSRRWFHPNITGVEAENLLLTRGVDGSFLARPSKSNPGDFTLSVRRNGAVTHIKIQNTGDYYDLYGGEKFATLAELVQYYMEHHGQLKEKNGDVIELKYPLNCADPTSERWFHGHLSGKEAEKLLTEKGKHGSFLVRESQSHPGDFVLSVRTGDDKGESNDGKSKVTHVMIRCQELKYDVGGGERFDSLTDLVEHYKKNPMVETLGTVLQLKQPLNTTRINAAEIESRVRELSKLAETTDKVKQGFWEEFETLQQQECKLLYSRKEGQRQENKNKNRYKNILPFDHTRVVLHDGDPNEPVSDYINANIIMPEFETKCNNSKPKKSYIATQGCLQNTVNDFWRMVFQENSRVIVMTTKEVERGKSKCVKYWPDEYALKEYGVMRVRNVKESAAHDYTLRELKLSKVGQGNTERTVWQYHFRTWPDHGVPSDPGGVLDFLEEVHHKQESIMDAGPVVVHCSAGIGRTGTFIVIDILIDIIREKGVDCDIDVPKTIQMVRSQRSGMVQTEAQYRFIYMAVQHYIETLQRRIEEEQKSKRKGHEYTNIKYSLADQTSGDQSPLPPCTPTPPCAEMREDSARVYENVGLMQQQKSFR

Usually IC50 stands for the midpoint of a concentration-inhibition curve. With `COc1cccc(SCC#Cc2cnc(N3CCC4(CC3)Cc3ccccc3[C@H]4N)c(CO)n2)c1` [Compound A06, (S)-(3-(1-amino-1,3-dihydrospiro[indene-2,4′-piperidin]-1′-yl)-6-(3-((3-methoxyphenyl)thio)prop-1-yn-1-yl)pyrazin-2-yl)methanol], the IC50 on SHP2 worked out at 6.8 nM; in the test on leukemia cells MV-4-11 (setting [2]), 8 nM; in test [1] (setting [3]) it was 11 nM.
In the case of `N[C@@H]1c2ccccc2CC12CCN(c1ncc(C#CCNc3ccccc3)nc1CO)CC2` [Compound A07, (S)-(3-(1-amino-1,3-dihydrospiro [indene-2,4′-piperidine]-1′-yl)-6-(3-(phenylamino)prop-1-yn-1-yl)pyrazin-2-yl) methanol], the IC50 on SHP2 was found to be 2.5 nM; in the test with leukemia cells MV-4-11 (setting [2]), 5.5 nM; in test [1] (setting [3]), 12 nM.
The matching figures for `CC(=O)Nc1ccc(OCC#Cc2cnc(N3CCC4(CC3)Cc3ccccc3[C@H]4N)c(CO)n2)cc1` [Compound A08, (S)-N-(4-((3-(5-(1-amino-1,3-dihydrospiro [indene-2,4′-piperidine]-1′-yl) -6-(hydroxymethyl)pyrazin-2-yl)prop-2-yn-1-yl)oxy)phenyl) acetamide]: 3.3 nM, 2.1 nM and 3.8 nM.
On to `COc1ccc(OCC#Cc2cnc(N3CCC4(CC3)Cc3ccccc3[C@H]4N)c(CO)n2)cc1` [Compound A09, (S)-(3-(1-amino-1,3-dihydrospiro [indene-2,4′-piperidine]-1′-yl)-6-(3-(4-methoxyphenoxy)prop-1-yn-1-yl)pyrazin-2-yl) methanol], for which the IC50 was found to be 0.9 nM at SHP2, 2.6 nM in the test with leukemia cells MV-4-11 (setting [2]) and 4.9 nM in test [1] (setting [3]).
In the case of `CC(=O)N1CCN(c2ccc(OCC#Cc3cnc(N4CCC5(CC4)Cc4ccccc4[C@H]5N)c(CO)n3)cc2)CC1` [Compound A21, (S)-1-(4-(4-(3-(5-(1-amino-1,3-dihydrospiro [indene-2,4 ‘-piperidine]-1′-yl) -6-(hydroxymethyl)pyrazin-2-yl)prop-2-yn-1-yl)oxy)piperazin-1-yl)ethane-1-one], the IC50 at SHP2 turned out to be 2.1 nM; with leukemia cells MV-4-11 (cultured for 120 hrs) it was 11 nM; in test [1] (ultra-low adsorption plate) it was 12 nM.
As for `COc1ccc(NCC#Cc2cnc(N3CCC4(CC3)Cc3ccccc3[C@H]4N)c(CO)n2)cc1OC` [Compound A47, (S)-(3-(1-amino-1,3-dihydrospiro [indene-2,4′-piperidin]-1′-yl)-6-(3-((3,4-dimethoxyphenyl)amino)prop-1-yn-1-yl)pyrazin-2-yl)], the half-inhibitory concentration (IC50) on SHP2 stood at 4 nM; in the test with leukemia cells MV-4-11 (cultured for 120 hrs), 17 nM; in test [1] (ultra-low adsorption plate), 48 nM.
With `COc1cc(OCC#Cc2cnc(N3CCC4(CC3)Cc3ccccc3[C@H]4N)c(CO)n2)ccn1` [Compound A49, (S)-(3-(1-amino-1,3-dihydrospiro[indene-2,4′-piperidin]-1′-yl)-6-(3-((2-methoxypyridine-4-yl)oxy)prop-1-yn-1-yl)pyrazin-2-yl)methanol], the IC50 is 1.4 nM at SHP2, 6.7 nM with leukemia cells MV-4-11 (setting [2]) and 8.5 nM in test [1] (setting [3]).
For `N[C@@H]1c2ccccc2CC12CCN(c1ncc(C#CCOc3ccc4c(c3)CCNC4=O)nc1CO)CC2` [Compound A52, (S)-6-((3-(5-(1-amino-1,3-dihydrospiro[indene-2,4′-piperidin]-1′-yl)-6-(hydroxymethyl)pyrazin-2-yl)prop-2-yn-1-yl)oxy)-3,4-dihydroisoquinolin-1(2H)-one], the IC50 was 1.6 nM at SHP2, 1.5 nM in the test with leukemia cells MV-4-11 (setting [2]) and 4.6 nM in test [1] (setting [3]).
As for `N#Cc1cccc(OCC#Cc2cnc(N3CCC4(CC3)Cc3ccccc3[C@H]4N)c(CO)n2)c1` [Compound A53, (S)-3-((3-(5-(1-amino-1,3-dihydrospiro[indene-2,4′-piperidin]-1′-yl)-6-(hydroxymethyl)pyrazin-2-yl)prop-2-yn-1-yl)oxy)benzonitrile], the IC50 was determined as 3.3 nM on SHP2, 8.1 nM in the test with leukemia cells MV-4-11 (setting [2]) and 27 nM in test [1] (setting [3]).
With `COc1ccc2c(c1)[C@@H](N)C1(CCN(c3ncc(C#CCOc4ccc(C(N)=O)cc4)nc3CO)CC1)C2` [Compound A58, (S)-4-((3-(5-(1-amino-6-methoxy-1,3-dihydrospiro[indene-2,4′-piperidin]-1′-yl)-6-(hydroxymethyl)pyrazin-2-yl)prop-2-yn-1-yl)oxy)benzamide], the IC50 at SHP2 came to 1.5 nM; with leukemia cells MV-4-11 (setting [2]), 0.8 nM; in test [1] (setting [3]) it was 4 nM.
As to `N[C@@H]1c2ccccc2CC12CCN(c1ncc(C#CCNc3ccc(C(F)(F)F)nc3)nc1CO)CC2` [Compound A63, (S)-(3-(1-amino-1,3-dihydrospiro[indene-2,4′-piperidin]-1′-yl)-6-(3-( (6-(trifluoromethyl)pyridin-3-yl)amino)prop-1-yn-1-yl)pyrazin-2-yl)methanol], the IC50 on SHP2 came to 5 nM; in the test with leukemia cells MV-4-11 (setting [2]), 11 nM; in test [1] (setting [3]), 36 nM.
For `CC(=O)Nc1cccc(NCC#Cc2cnc(N3CCC4(CC3)Cc3ccccc3[C@H]4N)c(CO)n2)c1` [Compound A65, (S)-N-(3-((3-(5-(1-amino-1,3-dihydrospiro[indene-2,4′-piperidin]-1′-yl)-6-(hydroxylmethyl)pyrazin-2-yl)prop-2-yn-1-yl)amino)phenyl)a cetamide], the IC50 turned out to be 3.5 nM on SHP2, 2.8 nM in the test with leukemia cells MV-4-11 (setting [2]) and 25 nM in test [1] (setting [3]).
For `CNc1ncc(OCC#Cc2cnc(N3CCC4(CC3)Cc3ccccc3[C@H]4N)c(CO)n2)cn1` [Compound A68, (S)-(3-(1-amino-1,3-dihydrospiro[indene-2,4′-piperidin]-1′-yl)-6-(3-( (2-(methylAmino)pyrimidin-5-yl)oxy)prop-1-yn-1-yl)pyrazin-2-yl) methanol], in that order: 2.1 nM, 8.6 nM and 26 nM.
With `Cc1nc2cc(OCC#Cc3cnc(N4CCC5(CC4)Cc4ccccc4[C@H]5N)c(CO)n3)ccc2[nH]1` [Compound A73, (S)-(3-(1-amino-1,3-dihydrospiro[indene-2,4′-piperidin]-1′-yl)-6-(3-( (2-methyl-1H-Benzo[d]imidazol-5-yl)oxy)prop-1-yn-1-yl)pyrazin-2-yl)methanol], the IC50 at SHP2 amounted to 3.1 nM; in the test with leukemia cells MV-4-11 (setting [2]), 1.1 nM; in test [1] (setting [3]) it was 3.4 nM.
